From patent publication US20220089600A1, “TGFß INHIBITOR AND PRODRUGS” (FUNDACIÓ INSTITUT DE RECERCA BIOMÈDICA (IRB BARCELONA), priority 2018, published 2022)

Experiments:
ALK1 (ACVRL1) = biological target: T1, ALK1 (ACVRL1) (Homo sapiens, UniProt P37023); assay: KINOMEscan affinity, competition binding
T1 construct: purchased Eurofins (KINOMEscan service)
Description: (§1) The affinity, measured as Kd (dissociation constants), of the compound of formula I for the ALK family was determined by using the KINOMEscan™ Technology from Eurofins. Selectivity in front of ALK1 (ACVRL1), ALK2 (ACVR1), ALK3 (BMPR1A), ALK4 (ACVR1B), ALK6 (BMPR1B), ACVR2B and TGFβR2 was determined.
(§2) The KINOMEscan screening platform employs an active-site directed competition binding assay to quantitatively measure interactions between test compounds and kinases.
(§3) The assay is performed by combining three components: DNA-tagged kinase; immobilized ligand; and a test compound. The ability of the test compound to compete with the immobilized ligand is measured via quantitative PCR of the DNA tag.
(§4) Test compounds were prepared as 111× stocks in 100% DMSO. Kds were determined using an 11-point 3-fold compound dilution series with three DMSO control points being the top concentration 30 μM. […] The compounds were then diluted directly into the assays such that the final concentration of DMSO was 0.9%. All reactions performed in polypropylene 384-well plate. Each was a final volume of 0.02 ml. […] The beads were then re-suspended in elution buffer (1×PBS, 0.05% Tween 20, 0.5 μM non-biotinylated affinity ligand) and incubated at room temperature with shaking for 30 minutes. The kinase concentration in the eluates was measured by qPCR.
(§5) Compounds that bind the kinase active site and directly (sterically) or indirectly (allosterically) prevent kinase binding to the immobilized ligand, will reduce the amount of kinase captured on the solid support. […] Dissociation constants (Kds) for test compound-kinase interactions are calculated by measuring the amount of kinase captured on the solid support as a function of the test compound concentration.

ACVR2B = biological target: T2, ACVR2B (Homo sapiens, UniProt Q13705); assay: KINOMEscan affinity, competition binding
T2 construct: purchased Eurofins (KINOMEscan service)
T2 sequence (Q13705 19-512): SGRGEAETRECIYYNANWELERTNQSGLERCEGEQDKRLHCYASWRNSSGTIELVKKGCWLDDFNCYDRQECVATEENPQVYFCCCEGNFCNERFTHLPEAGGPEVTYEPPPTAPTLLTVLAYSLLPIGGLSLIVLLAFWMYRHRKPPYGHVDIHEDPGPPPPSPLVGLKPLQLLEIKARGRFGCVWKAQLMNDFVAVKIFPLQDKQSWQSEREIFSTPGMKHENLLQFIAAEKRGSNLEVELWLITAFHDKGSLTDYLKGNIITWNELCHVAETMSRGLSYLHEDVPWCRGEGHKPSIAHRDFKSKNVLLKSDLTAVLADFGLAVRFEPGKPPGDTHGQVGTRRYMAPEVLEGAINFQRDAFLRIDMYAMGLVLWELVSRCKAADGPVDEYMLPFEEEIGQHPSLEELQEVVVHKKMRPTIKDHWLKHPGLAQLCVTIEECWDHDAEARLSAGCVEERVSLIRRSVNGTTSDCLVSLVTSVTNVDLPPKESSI
Description: as §1, §2, §3, §4, §5

ALK6 (BMPR1B) = biological target: T3, ALK6 (BMPR1B) (Homo sapiens, UniProt O00238); assay: KINOMEscan affinity, competition binding
T3 construct: purchased Eurofins (KINOMEscan service)
T3 sequence (O00238 14-502): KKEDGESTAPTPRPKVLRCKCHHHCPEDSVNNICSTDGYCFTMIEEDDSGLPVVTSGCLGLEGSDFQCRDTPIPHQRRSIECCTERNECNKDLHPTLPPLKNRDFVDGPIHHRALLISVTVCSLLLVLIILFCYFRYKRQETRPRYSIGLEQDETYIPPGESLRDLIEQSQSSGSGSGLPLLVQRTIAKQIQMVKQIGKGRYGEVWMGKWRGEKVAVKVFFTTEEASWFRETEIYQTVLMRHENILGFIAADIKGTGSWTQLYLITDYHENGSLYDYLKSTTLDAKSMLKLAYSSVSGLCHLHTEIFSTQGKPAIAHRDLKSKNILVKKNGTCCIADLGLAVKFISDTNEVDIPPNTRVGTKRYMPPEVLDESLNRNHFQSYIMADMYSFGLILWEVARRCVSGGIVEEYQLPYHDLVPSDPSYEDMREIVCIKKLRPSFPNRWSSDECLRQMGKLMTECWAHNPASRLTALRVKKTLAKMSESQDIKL
Description: as §1, §2, §3, §4, §5

[1] = In vivo toxicity, histopathology; set-up: species or system mouse; conditions: for Sternum side effect, mice affected per mice tested / Long bones side effect, mice affected per mice tested: two weeks
From the text: Number of cured mice, i.e. mice with no metastases at experimental end points, were score. Intestines, skin samples, hearts, thoracic skeletons and limbs of these mice were fixed in 10% formalin, phosphate buffered (Sigma). Soft tissues were embedded in paraffin blocks, sectioned and stained with haematoxylin & eosin. Bones were first decalcified for 2 weeks before embedding, sectioning and staining. An experienced pathologist analyzed tissues for histopathological abnormalities. […] Furthermore, the cartilage ossification zone at the ends of the long bones was analysed for defects in the hypertrophic zone.

T1 sequence (P37023 22-503): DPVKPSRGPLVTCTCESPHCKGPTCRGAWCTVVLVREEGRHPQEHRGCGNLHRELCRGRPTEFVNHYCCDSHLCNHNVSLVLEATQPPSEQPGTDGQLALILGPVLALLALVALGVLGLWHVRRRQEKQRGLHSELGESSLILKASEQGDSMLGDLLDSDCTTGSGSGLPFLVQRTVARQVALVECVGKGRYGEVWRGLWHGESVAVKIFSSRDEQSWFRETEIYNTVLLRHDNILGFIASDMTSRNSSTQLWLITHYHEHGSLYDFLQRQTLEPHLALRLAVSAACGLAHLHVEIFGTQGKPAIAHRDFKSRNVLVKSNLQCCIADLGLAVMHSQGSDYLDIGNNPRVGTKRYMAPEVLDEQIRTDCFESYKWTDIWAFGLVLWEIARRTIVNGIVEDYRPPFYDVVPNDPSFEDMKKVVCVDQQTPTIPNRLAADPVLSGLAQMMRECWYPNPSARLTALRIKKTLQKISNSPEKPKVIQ

For Cc1cccc(-c2nn3c(c2-c2ccnc4ccc(O)cc24)CCC3)n1 [compound of formula I, 4-(2-(6-methylpyridin-2-yl)-5,6-dihydro-4H-pyrrolo[1,2-b]pyrazol-3-yl)quinolin-6-ol], the Selectivity improvement (ALK1 (ACVRL1); (I) versus Galunisertib) was 3.8, the “Selectivity against ALK5” value (ALK1 (ACVRL1); ALK1 versus ALK5) was 550 and the “selectivity for ALK5 against ALK1” value (ALK1 (ACVRL1); KINOMEscan) was “greater than 300 fold”. The Selectivity improvement (ACVR2B; (I) versus Galunisertib) was 1.2, the “Selectivity against ALK5” value (ACVR2B; ACVR2B versus ALK5) was 5.0 and the “selectivity for ALK5 against ACVR2B” value (ACVR2B; KINOMEscan) was 5 fold. The Selectivity improvement (ALK6 (BMPR1B); (I) versus Galunisertib) was 2.9, the “Selectivity against ALK5” value (ALK6 (BMPR1B); ALK6 versus ALK5) was 8.0 and the “selectivity for ALK5 against ALK6” value (ALK6 (BMPR1B); KINOMEscan) was 8 fold. For the same compound, the “Combined side effects per number tested” value ([1]; 0.3x dose) was 0/5, the “Toxicity (%)” value ([1]; 0.3x dose) was 0% and the “Sternum side effect, mice affected per mice tested” value ([1]; 0.3x dose) was 0/5. The “Combined side effects per number tested” value ([1]; 1x dose) was 0/5, the “Toxicity (%)” value ([1]; 1x dose) was 0% and the “Sternum side effect, mice affected per mice tested” value ([1]; 1x dose) was 0/5. The “pathological analysis of the skin and intestine” value ([1]; 1× doses) was “No pathological anomalies”, the “Combined side effects per number tested” value ([1]; 3x dose) was 2/10 and the “Toxicity (%)” value ([1]; 3x dose) was 20%. For the same compound, the “Long bones side effect, mice affected per mice tested” value ([1]; 3x dose) was 1/5, the “Sternum side effect, mice affected per mice tested” value ([1]; 3x dose) was 1/5 and the “Combined side effects per number tested” value ([1]; 9x dose) was 4/8. The “Toxicity (%)” value ([1]; 9x dose) was 50%, the “Long bones side effect, mice affected per mice tested” value ([1]; 9x dose) was 3/4 and the “Sternum side effect, mice affected per mice tested” value ([1]; 9x dose) was 1/4. The “toxic dose (toxicity >50%)” value ([1]; 9× dose equivalent) was 1272 mg/kg/day and the “therapeutic index (toxic dose/effective dose)” value ([1]; dose equivalents) was 30.
